Reference: US6472369B1, “Anticancer compounds and methods” (The Regents of the University of Michigan, priority 1996, dated 2002)

Tests used:
[1] = tested on: metastatic DU-145 prostate cancer cells; test: SU-ECM invasion assay, DU-145 prostate cancer cells; type: cell-based, human; details: for inhibition of serum-induced invasion of SU-ECM: DU-145, 10% serum, FIG. 6A; for inhibition of PHSRN-induced invasion of SU-ECM: DU-145, serum-free medium, 100 ng per ml PHSRN, FIG. 6B
[2] = tested on: metastatic SUM-52 PE breast cancer cells; test: SU-ECM invasion assay, SUM-52 PE breast cancer cells; type: cell-based, human; details: SUM-52 PE; for inhibition of PHSRN-induced invasion of SU-ECM: serum free medium, 100 ng per ml PHSRN, FIG. 5B; for inhibition of serum-induced invasion of SU-ECM: FIG. 5A
Protocol: Human breast carcinoma cell lines SUM 52 PE and SUM 44 PE were originally cultured from the pleural effusions of patients with metastatic breast cancer; and SUM 102 was cultured from a primary, microinvasive breast carcinoma (Ethier, S. P., Mahack, M. L., Gullick, W. J., Frank, T. S., and Weber, B. L. Differential isolation of normal luminal mammary epithelial cells and breast cancer cells from primary and metastatic sites using selective media. Cancer Res. 53: 627-635).
(§1) Adult Strongylocentrotus purpuratus sea urchins were obtained from Pacific BioMarine, and their embryos were cultured to the early pluteus stage in artificial sea water at 15° C. SU-ECM were prepared from them by treatment with nonionic detergent and strerilized by dilution in the appropriate media.
(§2) Cells were harvested by rinsing in Hanks' balanced salt solution, followed by brief treatment with 0.25% trypsin, 0.02% EDTA, and pelleting and resuspension in the appropriate medium with or without 5% FCS at a density of about 50,000 cells per ml. When appropriate, purified bovine plasma fibronectin (Sigma), purified 120 kDa chymotryptic fragment (Gibco BRL), PHSRN (SEQ ID NO:1) or PHSCN (SEQ ID NO:86) peptides (synthesized at the Biomedical Research Core Facilities of the University of Michigan), or GRGDSP (SEQ ID NO:83) or GRGESP (SEQ ID NO:84) peptides (Gibco BRL) were added to the resuspended cells prior to placement of the cells on SU-ECM. In each well of a plate used for an invasion assay, SU-ECM were placed in 0.5 ml of the appropriate medium, and 0.5 ml of the resuspended cells dropped on their exterior surfaces. Invasion assays were incubated 1 to 16 hours prior to assay. If some circumstances, invasion assays were fixed in phosphate-buffered saline (PBS) with 2% formaldehyde for 5 minutes at room temperature, then rinsed into PBS.
(§3) Invasion assays were coded and scored blindly by microscopic examination under phase contrast at 200- and 400-fold magnification. Each cell contacting an SU-ECM was scored for its position relative to the exterior or interior surfaces. A cell was judged to have invaded if it was located on an interior surface below the focal plane passing through the upper surface of the SU-ECM, but above the focal plane passing through its lower surface. The minimum viability of the cells in each assay was always ascertained at the time of assay by determining the fraction of spread, adherent cells on the bottom of each well scored.
(§4) An invasion frequency is defined as the fraction of cells in contact with basement membranes which were located in their interiors at the time of assay. Thus, an invasion frequency of 1 denotes invasion by 100% of the cells in contact with basement membranes. Invasion frequencies were determined multiple times for each cell type assayed. For each type of cell assayed the mean and standard deviation of the invasion frequencies were calculated.
The method of Example 4 is employed, with the addition of varying concentrations of the PHSCN (SEQ ID NO:86) peptide.
Thus, the procedure in Example 4 provides a method for determining the inhibitory potential of the PHSCN (SEQ ID NO:86) peptide by comparing the number of cell invasions in the presence of the PHSCN (SEQ ID NO:86) peptide, with the number of cell invasions in the absence of the PHSCN (SEQ ID NO:86) peptide.

[3] = tested on: rat metastatic prostate carcinoma MatLyLu (MLL) cells; test: SU-ECM invasion assay, rat MatLyLu prostate carcinoma cells; type: cell-based; details: for inhibition of PHSRN-induced invasion of SU-ECM: serum free media, 100 ng per ml PHSRN, FIG. 7B
Protocol: as §1, §2, §3, §4
The result of adding a varying concentration of the PHSCN (SEQ ID NO:86) peptide to PHSRN-induced (SEQ ID NO:1) MLL cells in serum free media is shown in FIG. 7B, where 100 ng per ml of PHSRN (SEQ ID NO:1) was used to induce invasion.
The procedure described in Example 10, was employed using SU-ECM substrates in 10% FCS and PHS(hC)N (SEQ ID NO:85) instead of PHSCN (SEQ ID NO:86). The result of adding varying concentrations of the PHS(hC)N (SEQ ID NO:85) peptide to serum-induced MLL cells indicates this peptide also has an inhibitory affect on cell invasion (see FIG. 8).

## Pro-His-Ser-Cys-Asn (PHSCN)
[1]; relatively high concentrations
  inhibition of serum-induced invasion of SU-ECM: complete inhibition
[1]; relatively low concentrations
  inhibition of serum-induced invasion of SU-ECM: substantial inhibitory affect
[1]; higher concentrations
  inhibition of PHSRN-induced invasion of SU-ECM: almost complete inhibition
[1]; low concentrations
  inhibition of PHSRN-induced invasion of SU-ECM: substantial inhibitory affect
[2]; higher concentrations
  inhibition of PHSRN-induced invasion of SU-ECM: almost complete inhibition
[2]; low concentrations
  inhibition of PHSRN-induced invasion of SU-ECM: substantial inhibitory affect
[2]; relatively high PHSCN concentrations
  inhibition of serum-induced invasion of SU-ECM: complete inhibition
[2]; relatively low PHSCN concentrations
  inhibition of serum-induced invasion of SU-ECM: substantial inhibitory affect
[3]; higher concentrations
  inhibition of PHSRN-induced invasion of SU-ECM: almost complete inhibition
[3]; low concentrations
  inhibition of PHSRN-induced invasion of SU-ECM: substantial inhibitory affect
[3]; serum-induced, I microgram per ml peptide, FIG. 7A
  inhibition of serum-induced invasion of SU-ECM: complete inhibition of invasion
